Source: ChEMBL document CHEMBL4823305, “Design, synthesis and antibacterial evaluation of novel 3-O-substituted 15-membered azalides possessing 1,2,3-triazole side chains” (2021)
≈ marks a conversion by molar mass, not a printed value.

How the values were obtained:
Assay type in all cases: functional
[1] = tested on: Staphylococcus aureus; assay: Antibacterial activity against erythromycin-susceptible Staphylococcus aureus ATCC25923 by broth microdilution method
[2] = tested on: Enterococcus faecium; assay: Antibacterial activity against clinical isolate erythromycin-resistant Enterococcus faecium by broth microdilution method
[3] = tested on: Klebsiella pneumoniae; assay: Antibacterial activity against Klebsiella pneumoniae ATCC10031 by broth microdilution method
[4] = tested on: Enterococcus faecalis; assay: Antibacterial activity against vancomycin-susceptible Enterococcus faecalis ATCC29212 by broth microdilution method
[5] = tested on: Staphylococcus aureus; assay: Antibacterial activity against methicillin-resistant Staphylococcus aureus ATCC43300 by broth microdilution method
[6] = tested on: Bacillus subtilis; assay: Antibacterial activity against penicillin-susceptible Bacillus subtilis ATCC9372 by broth microdilution method
[7] = tested on: Staphylococcus aureus; assay: Antibacterial activity against penicillin-resistant Staphylococcus aureus by broth microdilution method
[8] = Ratio of MBC for bactericidal activity against methicillin-resistant Staphylococcus aureus ATCC43300 to MIC for antibacterial activity against methicillin-resistant Staphylococcus aureus ATCC43300 by broth microdilution method
[9] = tested on: Staphylococcus aureus; assay: Bactericidal activity against methicillin-resistant Staphylococcus aureus ATCC43300

SMILES	MIC [1] [µg/mL]	MIC [2] [µg/mL]	MIC [3] [µg/mL]	MIC [4] [µg/mL]	MIC [5] [µg/mL]	MIC [6] [µg/mL]	MIC [7] [µg/mL]	Ratio [8]	MBC [9] [µg/mL]
CC[C@H]1OC(=O)[C@H](C)[C@@H](OC(=O)NNC(=O)Cn2cc(-c3ccccc3OC)nn2)[C@H](C)[C@@H](O[C@@H]2O[C@H](C)C[C@H](N(C)C)[C@H]2O)[C@](C)(O)C[C@@H](C)CN(C)[C@H](C)[C@H]2OC(=O)O[C@@]21C	64 (≈ 71.9 µM)	128 (≈ 144 µM)	64 (≈ 71.9 µM)	64 (≈ 71.9 µM)	256 (≈ 288 µM)	128 (≈ 144 µM)	256 (≈ 288 µM)		
CC[C@H]1OC(=O)[C@H](C)[C@@H](OC(=O)NNC(=O)Cn2cc(-c3ccc(OC)cc3)nn2)[C@H](C)[C@@H](O[C@@H]2O[C@H](C)C[C@H](N(C)C)[C@H]2O)[C@](C)(O)C[C@@H](C)CN(C)[C@H](C)[C@H]2OC(=O)O[C@@]21C	64 (≈ 71.9 µM)	128 (≈ 144 µM)	32 (≈ 36 µM)	64 (≈ 71.9 µM)	256 (≈ 288 µM)	128 (≈ 144 µM)	256 (≈ 288 µM)		
CC[C@H]1OC(=O)[C@H](C)[C@@H](OC(=O)NNC(=O)Cn2cc(-c3cccc(N)c3)nn2)[C@H](C)[C@@H](O[C@@H]2O[C@H](C)C[C@H](N(C)C)[C@H]2O)[C@](C)(O)C[C@@H](C)CN(C)[C@H](C)[C@H]2OC(=O)O[C@@]21C	128 (≈ 146 µM)	128 (≈ 146 µM)	128 (≈ 146 µM)	> 128	> 256	> 128	> 256		
CC[C@H]1OC(=O)[C@H](C)[C@@H](OC(=O)NNC(=O)Cn2cc(-c3ccc(F)cc3)nn2)[C@H](C)[C@@H](O[C@@H]2O[C@H](C)C[C@H](N(C)C)[C@H]2O)[C@](C)(O)C[C@@H](C)CN(C)[C@H](C)[C@H]2OC(=O)O[C@@]21C	64 (≈ 72.9 µM)	128 (≈ 146 µM)	64 (≈ 72.9 µM)	32 (≈ 36.4 µM)	256 (≈ 292 µM)	64 (≈ 72.9 µM)	128 (≈ 146 µM)		
CC[C@H]1OC(=O)[C@H](C)[C@@H](OC(=O)NNC(=O)Cn2cc(-c3cccc(C)c3)nn2)[C@H](C)[C@@H](O[C@@H]2O[C@H](C)C[C@H](N(C)C)[C@H]2O)[C@](C)(O)C[C@@H](C)CN(C)[C@H](C)[C@H]2OC(=O)O[C@@]21C	64 (≈ 73.2 µM)	128 (≈ 146 µM)	16 (≈ 18.3 µM)	32 (≈ 36.6 µM)	128 (≈ 146 µM)	64 (≈ 73.2 µM)	256 (≈ 293 µM)		
CCCCc1ccc(-c2cn(CC(=O)NNC(=O)O[C@H]3[C@H](C)[C@@H](O[C@@H]4O[C@H](C)C[C@H](N(C)C)[C@H]4O)[C@](C)(O)C[C@@H](C)CN(C)[C@H](C)[C@H]4OC(=O)O[C@]4(C)[C@@H](CC)OC(=O)[C@@H]3C)nn2)cc1	8 (≈ 8.73 µM)	16 (≈ 17.5 µM)	16 (≈ 17.5 µM)	4 (≈ 4.37 µM)	32 (≈ 34.9 µM)	8 (≈ 8.73 µM)	32 (≈ 34.9 µM)	>8	> 256
CCCOc1ccc(-c2cn(CC(=O)NNC(=O)O[C@H]3[C@H](C)[C@@H](O[C@@H]4O[C@H](C)C[C@H](N(C)C)[C@H]4O)[C@](C)(O)C[C@@H](C)CN(C)[C@H](C)[C@H]4OC(=O)O[C@]4(C)[C@@H](CC)OC(=O)[C@@H]3C)nn2)cc1	16 (≈ 17.4 µM)	64 (≈ 69.7 µM)	32 (≈ 34.9 µM)	16 (≈ 17.4 µM)	64 (≈ 69.7 µM)	32 (≈ 34.9 µM)	64 (≈ 69.7 µM)		
CC[C@H]1OC(=O)[C@H](C)[C@@H](OC(=O)NNC(=O)Cn2cc(-c3ccccc3)nn2)[C@H](C)[C@@H](O[C@@H]2O[C@H](C)C[C@H](N(C)C)[C@H]2O)[C@](C)(O)C[C@@H](C)CN(C)[C@H](C)[C@H]2OC(=O)O[C@@]21C	32 (≈ 37.2 µM)	64 (≈ 74.4 µM)	32 (≈ 37.2 µM)	16 (≈ 18.6 µM)	256 (≈ 298 µM)	128 (≈ 149 µM)	256 (≈ 298 µM)		
CC[C@H]1OC(=O)[C@H](C)[C@@H](OC(=O)NNC(=O)Cn2cc(-c3cccc(F)c3)nn2)[C@H](C)[C@@H](O[C@@H]2O[C@H](C)C[C@H](N(C)C)[C@H]2O)[C@](C)(O)C[C@@H](C)CN(C)[C@H](C)[C@H]2OC(=O)O[C@@]21C	32 (≈ 36.4 µM)	128 (≈ 146 µM)	64 (≈ 72.9 µM)	32 (≈ 36.4 µM)	256 (≈ 292 µM)	64 (≈ 72.9 µM)	256 (≈ 292 µM)		
CC[C@H]1OC(=O)[C@H](C)[C@@H](OC(=O)NNC(=O)Cn2cc(-c3cccc(Cl)c3)nn2)[C@H](C)[C@@H](O[C@@H]2O[C@H](C)C[C@H](N(C)C)[C@H]2O)[C@](C)(O)C[C@@H](C)CN(C)[C@H](C)[C@H]2OC(=O)O[C@@]21C	64 (≈ 71.6 µM)	64 (≈ 71.6 µM)	16 (≈ 17.9 µM)	16 (≈ 17.9 µM)	128 (≈ 143 µM)	64 (≈ 71.6 µM)	256 (≈ 286 µM)		
